Test system: spontaneously hypertensive rats (SHR)
Assay: Antihypertensive activity test: blood pressure and heart rate of spontaneously hypertensive rats (SHR)
Type: in vivo, rat
Conditions: 200 mg/kg
Procedure: Tested Drugs: Compounds of the Invention. The dosage of all compound was uniformly set to 200 mg/kg.
In the test, changes in the blood pressure before and after the administration were detected, and compared with the basic value, a reduction of SBP ≥20 mmHg after administration was judged as effective antihypertensive effects; and at the same time, changes in the heart rate before and after the administration were detected.
Heart rate was expressed as mean±standard deviation (x±s). The changes of heart rate before and after the administration were compared by using Two-sample equal variance paired t test, and P<0.05 was regarded as the standard of statistically significant difference.

[1] = after administration (6 h M ± SD), n = 8
[2] = before administration, M ± SD, n = 8

CCC(O)c1cccc(CO)c1 (stereo not drawn) [Compound 13]
SHR heart rate, time after administration 0 h (0 h, N = 8): 319 ± 21.0 beat/min
Heart rate Difference before and after administration, 1 h (1 h): 6 beat/min
SBP Difference before and after administration, 1 h (1 h): 3 mmHg
SHR heart rate, time after administration 1 h (1 h, N = 8): 325 ± 24.2 beat/min
SHR blood pressure (SBP), time after administration 1 h (1 h, n = 8): 186 ± 12.4 mmHg
Heart rate Difference before and after administration, 2 h (2 h): 14 beat/min
SBP Difference before and after administration, 2 h (2 h): 12 mmHg
SHR heart rate, time after administration 2 h (2 h, N = 8): 332 ± 38.9 beat/min
SHR blood pressure (SBP), time after administration 2 h (2 h, n = 8): 178 ± 12.0 mmHg
Heart rate Difference before and after administration, 3 h (3 h): 17 beat/min
SBP Difference before and after administration, 3 h (3 h): 19 mmHg
SHR heart rate, time after administration 3 h (3 h, N = 8): 335 ± 43.8 beat/min
SHR blood pressure (SBP), time after administration 3 h (3 h, n = 8): 171 ± 13.1 mmHg
Heart rate Difference before and after administration, 4 h (4 h): 15 beat/min
SBP Difference before and after administration, 4 h (4 h): 14 mmHg
SHR heart rate, time after administration 4 h (4 h, N = 8): 334 ± 45.8 beat/min
SHR blood pressure (SBP), time after administration 4 h (4 h, n = 8): 176 ± 11.4 mmHg
Heart rate Difference before and after administration, 5 h (5 h): 10 beat/min
SBP Difference before and after administration, 5 h (5 h): 10 mmHg
SHR heart rate, time after administration 5 h (5 h, N = 8): 329 ± 39.5 beat/min
SHR blood pressure (SBP), time after administration 5 h (5 h, n = 8): 180 ± 11.9 mmHg
Heart rate Difference before and after administration, 6 h (6 h): 2 beat/min
SBP Difference before and after administration, 6 h (6 h): 14 mmHg
SHR heart rate, time after administration 6 h (6 h, N = 8): 320 ± 43.1 beat/min
SHR blood pressure (SBP), time after administration 6 h (6 h, n = 8): 176 ± 10.1 mmHg
Blood pressure (SBP, mmHg) After administration [1]: 178 ± 11.2 mmHg
Heart rate (beat/min) After administration [1]: 329 ± 27.7 beat/min
Heart rate Difference (beat/min) (after administration minus baseline (6 h)): 10 beat/min
Blood pressure Difference mmHg (baseline minus after administration (6 h)): 12 mmHg
Blood pressure (SBP, mmHg) Baseline [2]: 190 ± 13.2 mmHg
Heart rate (beat/min) Baseline [2]: 319 ± 21.0 beat/min

COc1ccc([C@@H](O)[C@H](C)O)cc1Cl [Compound 14]
SBP Difference before and after administration, 1 h (1 h): 3 mmHg
SHR blood pressure (SBP), time after administration 1 h (1 h, n = 8): 182 ± 11.6 mmHg
SBP Difference before and after administration, 2 h (2 h): 7 mmHg
SHR blood pressure (SBP), time after administration 2 h (2 h, n = 8): 178 ± 10.8 mmHg
SBP Difference before and after administration, 3 h (3 h): 8 mmHg
SHR blood pressure (SBP), time after administration 3 h (3 h, n = 8): 177 ± 10.9 mmHg
SBP Difference before and after administration, 4 h (4 h): 5 mmHg
SHR blood pressure (SBP), time after administration 4 h (4 h, n = 8): 18 ± 15.80 mmHg
SBP Difference before and after administration, 5 h (5 h): 1 mmHg
SHR blood pressure (SBP), time after administration 5 h (5 h, n = 8): 184 ± 16.0 mmHg
SBP Difference before and after administration, 6 h (6 h): −1 mmHg
SHR blood pressure (SBP), time after administration 6 h (6 h, n = 8): 186 ± 17.7 mmHg

CC(=O)OC(C)C(OC(C)=O)c1ccccc1 (stereo not drawn) [Compound 15]
SBP Difference before and after administration, 1 h (1 h): 14 mmHg
SHR blood pressure (SBP), time after administration 1 h (1 h, n = 8): 176 ± 9.55 mmHg
SBP Difference before and after administration, 2 h (2 h): 18 mmHg
SHR blood pressure (SBP), time after administration 2 h (2 h, n = 8): 172 ± 7.36 mmHg
SBP Difference before and after administration, 3 h (3 h): 21 mmHg
SHR blood pressure (SBP), time after administration 3 h (3 h, n = 8): 169 ± 4.07 mmHg
SBP Difference before and after administration, 4 h (4 h): 17 mmHg
SHR blood pressure (SBP), time after administration 4 h (4 h, n = 8): 173 ± 7.15 mmHg
SBP Difference before and after administration, 5 h (5 h): 15 mmHg
SHR blood pressure (SBP), time after administration 5 h (5 h, n = 8): 175 ± 5.61 mmHg
SBP Difference before and after administration, 6 h (6 h): 10 mmHg
SHR blood pressure (SBP), time after administration 6 h (6 h, n = 8): 180 ± 6.66 mmHg

COc1ccc(C(O)C(=O)O)cc1 (stereo not drawn) [Compound 17]
SBP Difference before and after administration, 0 h (0 h): 0 mmHg
SBP Difference before and after administration, 1 h (1 h): 9 mmHg
SHR blood pressure (SBP), time after administration 1 h (1 h, n = 8): 186 ± 12.4 mmHg
SBP Difference before and after administration, 2 h (2 h): 7 mmHg
SHR blood pressure (SBP), time after administration 2 h (2 h, n = 8): 188 ± 12.0 mmHg
SBP Difference before and after administration, 3 h (3 h): 14 mmHg
SHR blood pressure (SBP), time after administration 3 h (3 h, n = 8): 181 ± 13.1 mmHg
SBP Difference before and after administration, 4 h (4 h): 9 mmHg
SHR blood pressure (SBP), time after administration 4 h (4 h, n = 8): 186 ± 11.4 mmHg
SBP Difference before and after administration, 5 h (5 h): 15 mmHg
SHR blood pressure (SBP), time after administration 5 h (5 h, n = 8): 180 ± 11.9 mmHg
SBP Difference before and after administration, 6 h (6 h): 9 mmHg
SHR blood pressure (SBP), time after administration 6 h (6 h, n = 8): 186 ± 10.1 mmHg

OCC(O)C(OC1OC(CO)C(O)C(O)C1O)c1ccc(O)cc1 (stereo not drawn) [Compound 18]
SBP Difference before and after administration, 1 h (1 h): 16 mmHg
SHR blood pressure (SBP), time after administration 1 h (1 h, n = 8): 176 ± 6.39 mmHg
SBP Difference before and after administration, 2 h (2 h): 18 mmHg
SHR blood pressure (SBP), time after administration 2 h (2 h, n = 8): 174 ± 4.50 mmHg
SBP Difference before and after administration, 3 h (3 h): 21 mmHg
SHR blood pressure (SBP), time after administration 3 h (3 h, n = 8): 171 ± 9.15 mmHg
SBP Difference before and after administration, 4 h (4 h): 19 mmHg
SHR blood pressure (SBP), time after administration 4 h (4 h, n = 8): 173 ± 13.7 mmHg
SBP Difference before and after administration, 5 h (5 h): 18 mmHg
SHR blood pressure (SBP), time after administration 5 h (5 h, n = 8): 174 ± 15.9 mmHg
SBP Difference before and after administration, 6 h (6 h): 14 mmHg
SHR blood pressure (SBP), time after administration 6 h (6 h, n = 8): 178 ± 8.78 mmHg

CCOC(=O)OC(CO)c1cccc(CC)c1 (stereo not drawn) [Compound 19]
SBP Difference before and after administration, 1 h (1 h): 12 mmHg
SHR blood pressure (SBP), time after administration 1 h (1 h, n = 8): 182 ± 11.6 mmHg
SBP Difference before and after administration, 2 h (2 h): 16 mmHg
SHR blood pressure (SBP), time after administration 2 h (2 h, n = 8): 178 ± 10.8 mmHg
SBP Difference before and after administration, 3 h (3 h): 17 mmHg
SHR blood pressure (SBP), time after administration 3 h (3 h, n = 8): 177 ± 10.9 mmHg
SBP Difference before and after administration, 4 h (4 h): 13 mmHg
SHR blood pressure (SBP), time after administration 4 h (4 h, n = 8): 181 ± 15.80 mmHg
SBP Difference before and after administration, 5 h (5 h): 10 mmHg
SHR blood pressure (SBP), time after administration 5 h (5 h, n = 8): 184 ± 16.0 mmHg
SBP Difference before and after administration, 6 h (6 h): 8 mmHg
SHR blood pressure (SBP), time after administration 6 h (6 h, n = 8): 186 ± 17.7 mmHg

COP(=O)(OC)OCC(O)c1ccccc1 (stereo not drawn) [Compound 20]
SHR blood pressure (SBP), time after administration 0 h (0 h, n = 8): 192 ± 7.98 mmHg
SBP Difference before and after administration, 1 h (1 h): 6 mmHg
SHR blood pressure (SBP), time after administration 1 h (1 h, n = 8): 186 ± 9.55 mmHg
SBP Difference before and after administration, 2 h (2 h): 10 mmHg
SHR blood pressure (SBP), time after administration 2 h (2 h, n = 8): 182 ± 7.36 mmHg
SBP Difference before and after administration, 3 h (3 h): 3 mmHg
SHR blood pressure (SBP), time after administration 3 h (3 h, n = 8): 189 ± 4.07 mmHg
SBP Difference before and after administration, 4 h (4 h): 9 mmHg
SHR blood pressure (SBP), time after administration 4 h (4 h, n = 8): 183 ± 7.15 mmHg
SBP Difference before and after administration, 5 h (5 h): 7 mmHg
SHR blood pressure (SBP), time after administration 5 h (5 h, n = 8): 185 ± 5.61 mmHg
SBP Difference before and after administration, 6 h (6 h): 2 mmHg
SHR blood pressure (SBP), time after administration 6 h (6 h, n = 8): 190 ± 6.66 mmHg

CC(C)(O)[C@H](O)[C@H](O)c1cccc2[nH]ccc12 [Compound 21]
SBP Difference before and after administration, 1 h (1 h): 11 mmHg
SHR blood pressure (SBP), time after administration 1 h (1 h, n = 8): 184 ± 10.6 mmHg
SBP Difference before and after administration, 2 h (2 h): 13 mmHg
SHR blood pressure (SBP), time after administration 2 h (2 h, n = 8): 182 ± 10.4 mmHg
SBP Difference before and after administration, 3 h (3 h): 12 mmHg
SHR blood pressure (SBP), time after administration 3 h (3 h, n = 8): 183 ± 9.90 mmHg
SBP Difference before and after administration, 4 h (4 h): 17 mmHg
SHR blood pressure (SBP), time after administration 4 h (4 h, n = 8): 178 ± 6.61 mmHg
SBP Difference before and after administration, 5 h (5 h): 13 mmHg
SHR blood pressure (SBP), time after administration 5 h (5 h, n = 8): 182 ± 7.25 mmHg
SBP Difference before and after administration, 6 h (6 h): 11 mmHg
SHR blood pressure (SBP), time after administration 6 h (6 h, n = 8): 184 ± 12.1 mmHg

— US12180146B2, “Antihypertensive polyol compound and derivative thereof” (TAO PHARMACEUTICAL (SUZHOU) CO., LTD, priority 2020, dated 2024)
